Patent publication US6863211B2, “Omega-hydrofluoroalkyl ethers, precursor carboxylic acids and derivatives thereof, and their preparation and application” (3M Innovative Properties Company, priority 1994, dated 2005)
Values belong to the molecule of their own block, whether it stands above or below them.

What was measured:
[1] = Comparative boiling points; type: physicochemical
Description: The unexpectedly low boiling points of compounds of the present invention render the compounds useful in processes involving temperature-sensitive substrates such as plastics. (For example, in vapor-phase cleaning, a substrate is rinsed in the condensing vapor of a boiling fluid, and in condensation heating, a substrate is heated by immersion in a boiling fluid.) In such applications, a lower-boiling fluid is preferred so as to avoid damage to the substrate. While it is known that boiling points can be reduced by selection of a compound having fewer carbon atoms, this may result in a boiling point reduction of 25° C. or more, in addition to adversely affecting other properties such as solvency.

[2] = Fire extinguishing agent evaluation, NFPA 2001 standard, modified cup burner; details: cup burner modified to handle liquid compounds
Experimental: Omega-hydrofluoroalkyl ether compounds of this invention were evaluated as fire extinguishing agents using the National Fire Protection Association 2001 Fire Protection Standard, with a cup burner modified to handle liquid compounds. The results, shown below in Table D, indicate that the compounds could be effective agents for fire extinguishing, explosion suppression, and as flammable atmosphere inerting agents.

[3] = Rinse agent in co-solvent cleaning of oil-contaminated aluminum coupon; details: 50° C., about 60 seconds methyl decanoate then about 60 seconds rinse agent, aluminum coupon with light hydrocarbon oil
Experimental: A sample of this compound was also evaluated for use as a rinse agent in co-solvent cleaning applications. (Such cleaning applications are taught, for example, in International Patent Publication No. WO 92/22678 (Petroferm Inc.). Organic esters such as methyl decanoate have found utility as solvating agents in two-phase cleaning applications using perfluorohexane as the carrier liquid and rinse agent.) Methyl decanoate and C4F9OC2F4H were placed in separate containers and heated to 50° C. in an ultrasonic bath. A 50 mm×25 mm×1.5 mm aluminum coupon was contaminated with 0.0831 g of a light hydrocarbon oil. The contaminated coupon was first immersed in the methyl decanoate for about 60 seconds and then immersed in the C4F9OC2F4H for about 60 seconds. The C4F9OC2F4H rinsed 100 percent (as determined by weight difference) of the oil and the methyl decanoate from the coupon.

[4] = Solubilities of selected hydrocarbon solvents in the ether hydride (precision cleaning); type: physicochemical
Experimental: A sample of this compound was evaluated for use in precision cleaning applications by measuring the solubilities of selected hydrocarbon solvents in the sample.

[5] = Spot-free drying: water displacement from glass and stainless steel coupons; details: 0.2% by weight C4F9OC2F4OCF2CONHC2H4OH dissolved in the ether, 45° C., ultrasonic agitation
Experimental: A sample of the compound was also evaluated for use in spot-free drying applications such as taught in U.S. Pat. No. 5,125,978 (Flynn et al.). A water displacement composition was prepared by dissolving 0.2% by weight of C4F9OC2F4OCF2CONHC2H4OH in C4F9—O—C2F4H. The solution was heated to 45° C. in an ultrasonic bath. Using the procedure described in U.S. Pat. No. 5,125,978, test coupons of glass and stainless steel were wetted with water and subsequently immersed into this solution with ultrasonic agitation. All water was displaced within 60 seconds.

Boiling Point [1]: 139 °C
Compound: FC(F)OC(F)(F)C(F)(F)C(F)(F)C(F)(F)C(F)(F)C(F)(F)C(F)(F)C(F)(F)F [C8F17OCF2H, C8F17—O—CF2H]

Compound: FC(F)C(F)(F)C(F)(F)OC(F)(F)C(F)(F)C(F)F [HC3F6OC3F6H]
Extinguishment concentration [2]: 5.7 vol. %

Compound: FC(F)(F)C(F)(F)C(F)(F)C(F)(F)C(F)(F)C(F)(F)F [perfluorohexane, reference compound]
Oil and methyl decanoate rinsed from the coupon (by weight difference) [3]: 98.5%

Solubility of chloroform in the ether hydride ([4]; Chloroform): 45 % by weight | Solubility of ethylene glycol in the ether hydride ([4]; Ethylene glycol): less than 15 % by weight | Solubility of hydrocarbon solvent in the ether hydride ([4]; hexane, heptane, toluene, acetone, 2-butanone, 4-methyl-2-pentanone, ethyl acetate, methanol, ethanol, isopropanol, dimethyl formamide, trans-1,2-dichloroethylene, isopropyl ether): up to 50 % by weight | Solubility of light hydrocarbon oil in the ether hydride ([4]; light hydrocarbon oil): less than 0.05 % by weight | Solubility of o-xylene in the ether hydride ([4]; o-Xylene): 19 % by weight | Time for all water to be displaced [5]: ≤ 60 s
Compound: FC(F)C(F)(F)OC(F)(F)C(F)(F)C(F)(F)C(F)(F)F [C4F9OC2F4H, C4F9—O—C2F4H]
Extinguishment concentration [2]: 5.6 vol. % | Oil and methyl decanoate rinsed from the coupon (by weight difference) [3]: 100%

Boiling Point [1]: 150 °C
Compound: FC(F)C(F)(F)C(F)(F)C(F)(F)C(F)(F)OC(F)(F)C(F)(F)C(F)(F)C(F)(F)C(F)(F)F [C5F11OC5F10H, C5F11—O—(CF2)5H]

Boiling Point [1]: 155 °C
Compound: FC(F)OC(F)(F)C(F)(F)C(F)(F)C(F)(F)C(F)(F)C(F)(F)C(F)(F)C(F)(F)C(F)(F)F [C9F19OCF2H]

Boiling Point [1]: 131 °C
Compound: FC(F)C(F)(F)OC(F)(F)C(F)(F)C(F)(F)C(F)(F)C(F)(F)C(F)(F)C(F)(F)F [C7F15OC2F4H, C7F15—O—C2F4H]

Boiling Point [1]: 136 °C
Compound: FC(F)C(F)(F)C(F)(F)C(F)(F)C(F)(F)C(F)(F)C(F)(F)C(F)(F)C(F)(F)F [C8F17CF2H, reference compound]

Boiling Point [1]: 149 °C
Compound: FC(F)C(F)(F)C(F)(F)C(F)(F)OC(F)(F)C(F)(F)C(F)(F)C(F)(F)C(F)(F)C(F)(F)F [C6F13OC4F8H, C6F13—O—C4F8—H]

Boiling Point [1]: 148 °C
Compound: FC(F)C(F)(F)OC(F)(F)C(F)(F)C(F)(F)C(F)(F)C(F)(F)C(F)(F)C(F)(F)C(F)(F)F [C8F17OC2F4H, C8F17—O—C2F4H]

Boiling Point [1]: 154 °C
Compound: FC(F)C(F)(F)C(F)(F)C(F)(F)C(F)(F)C(F)(F)C(F)(F)C(F)(F)C(F)(F)C(F)(F)F [C9F19CF2H, reference compound]
